These results are taken from article PMC8034185, “The rumen eukaryotome is a source of novel antimicrobial peptides with therapeutic potential” (BMC Microbiology, 2021).

Values after ≈ are worked out from the molar mass of the structure shown. Bridge positions count the residues as written; N and C are the ends. Square brackets hold non-standard residues; d marks the D form. Peptide text beside a SMILES is read from it. * marks the point of attachment. X1 = CC[C@H](C)CCCCC(=O)*; Dab = NCC[C@H](N)C(=O)O Some results are limits rather than exact numbers.

What all share (experiment): microbe, parasite or virus in culture
The subject of one assay is P. aeruginosa H174. It is filed as cell-based, Pseudomonas aeruginosa. The note with it: modified broth microdilution, cation-adjusted Mueller Hinton broth, inoculum 5 × 10^5 CFU/mL, 18 h, quadruplicate, highest concentration tested 512 μg/mL.
The test system of another assay is Sal. Tyhimurium (SL1344). Format: cell-based, Salmonella enterica serovar Typhimurium. Conditions: modified broth microdilution, cation-adjusted Mueller Hinton broth, inoculum 5 × 10^5 CFU/mL, 18 h, quadruplicate, highest concentration tested 512 μg/mL. (Dilution methods test growth across graded concentrations, often in twofold steps.)
For another assay, the system named is A. baumannii S27379 Sen. Format: cell-based, Acinetobacter baumannii. The note with it: sensitive hospital isolate, modified broth microdilution, cation-adjusted Mueller Hinton broth, inoculum 5 × 10^5 CFU/mL, 18 h, quadruplicate, highest concentration tested 512 μg/mL.
The test system of assay [1] is A. baumannii S15785 OXA-23/0XA-50. It is filed as cell-based, Acinetobacter baumannii. Conditions: modified broth microdilution, cation-adjusted Mueller Hinton broth, inoculum 5 × 10^5 CFU/mL, 18 h, quadruplicate, highest concentration tested 512 μg/mL.
The subject of another assay is A. baumannii IMI/MER-R. Format: cell-based, Acinetobacter baumannii. Conditions: imipenem/meropenem resistant, modified broth microdilution, cation-adjusted Mueller Hinton broth, inoculum 5 × 10^5 CFU/mL, 18 h, quadruplicate, highest concentration tested 512 μg/mL.
For another assay, the system named is A. baumannii DSMZ 30007. Format: cell-based, Acinetobacter baumannii. The note with it: modified broth microdilution, cation-adjusted Mueller Hinton broth, inoculum 5 × 10^5 CFU/mL, 18 h, quadruplicate, highest concentration tested 512 μg/mL.
A further assay relates to E. coli K12. It is filed as cell-based, Escherichia coli. The note with it: modified broth microdilution, cation-adjusted Mueller Hinton broth, inoculum 5 × 10^5 CFU/mL, 18 h, quadruplicate, highest concentration tested 512 μg/mL.
Another assay deals with P. aeruginosa PAO1. Format: cell-based, Pseudomonas aeruginosa. Conditions: modified broth microdilution, cation-adjusted Mueller Hinton broth, inoculum 5 × 10^5 CFU/mL, 18 h, quadruplicate, highest concentration tested 512 μg/mL.

For the compound `C[C@H]1COc2c(N3CCN(C)CC3)c(F)cc3c(=O)c(C(=O)O)cn1c23` [Levofloxacin], the MIC is 0.5 µg/mL (≈ 1.38 µM) with P. aeruginosa H174 (Pseudomonas aeruginosa, H174, read-out: Minimum Inhibitory Concentration, P. aeruginosa H174); 0.12 µg/mL (≈ 0.332 µM) in the assay on Sal. Tyhimurium (SL1344) (Salmonella enterica, read-out: Minimum Inhibitory Concentration, Sal. Tyhimurium); 0.12 µg/mL (≈ 0.332 µM) in the assay with A. baumannii S27379 Sen (Acinetobacter baumannii, S27379SEN, read-out: Minimum Inhibitory Concentration, A. baumannii S27379 Sen); greater than 512 µg/mL in assay [1] (Acinetobacter baumannii, read-out: Minimum Inhibitory Concentration, A. baumannii S15785 OXA-23/0XA-50); 256 µg/mL (≈ 708 µM) in the assay with A. baumannii IMI/MER-R (Acinetobacter baumannii, read-out: Minimum Inhibitory Concentration, A. baumannii IMI/MER-R); 0.25 µg/mL (≈ 0.692 µM) with A. baumannii DSMZ 30007 (Acinetobacter baumannii, DSMZ30007, read-out: Minimum Inhibitory Concentration, A. baumannii DSMZ 30007). The MIC in the assay on E. coli K12 (Escherichia coli, K12, read-out: Minimum Inhibitory Concentration, E. coli K12) is 0.03 µg/mL (≈ 0.083 µM); with P. aeruginosa PAO1 (Pseudomonas aeruginosa, PAO1, read-out: Minimum Inhibitory Concentration, P. aeruginosa PAO1), 0.06 µg/mL (≈ 0.166 µM).

As to `CC[C@H](C)CCCCC(=O)N[C@@H](CCN)C(=O)N[C@H](C(=O)N[C@@H](CCN)C(=O)N[C@H]1CCNC(=O)[C@H]([C@@H](C)O)NC(=O)[C@H](CCN)NC(=O)[C@H](CCN)NC(=O)[C@H](CC(C)C)NC(=O)[C@@H](Cc2ccccc2)NC(=O)[C@H](CCN)NC1=O)[C@@H](C)O` [Polymyxin B] (X1-[Dab]T[Dab][Dab][Dab][dF]L[Dab][Dab]T; lactam 4-C (inferred); N-terminus assumed), the “Minimum Inhibitory Concentration, P. aeruginosa H174” value in the assay on P. aeruginosa H174 was 1 µg/mL. Moreover, the “Minimum Inhibitory Concentration, Sal. Tyhimurium” value in the assay with Sal. Tyhimurium (SL1344) turned out to be 1 µg/mL. Also, the “Minimum Inhibitory Concentration, A. baumannii S27379 Sen” value in the assay with A. baumannii S27379 Sen came out at 1 µg/mL. The “Minimum Inhibitory Concentration, A. baumannii S15785 OXA-23/0XA-50” value in assay [1] came out at 0.5 µg/mL. For the same compound, the “Minimum Inhibitory Concentration, A. baumannii IMI/MER-R” value in the assay on A. baumannii IMI/MER-R was 1 µg/mL. Further, the “Minimum Inhibitory Concentration, A. baumannii DSMZ 30007” value with A. baumannii DSMZ 30007 was 1 µg/mL. The “Minimum Inhibitory Concentration, E. coli K12” value in the assay with E. coli K12 is 0.5 µg/mL. Further, the “Minimum Inhibitory Concentration, P. aeruginosa PAO1” value in the assay with P. aeruginosa PAO1 is 2 µg/mL.
